PubChem BioAssay (NCI)
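Each compound was tested at five concentrations against cells in 96-well plates for 48 hours. At the TGI there is no net growth.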

Tests used:
Assay in all cases: DTP human tumour cell line panel, 48 h
CCRF-CEM leukemia = test system: CCRF-CEM leukemia
HS 578T breast = test system: HS 578T breast
SK-MEL-2 melanoma = test system: SK-MEL-2 melanoma
HCT-116 colon = test system: HCT-116 colon
HL-60(TB) leukemia = test system: HL-60(TB) leukemia
LOX IMVI melanoma = test system: LOX IMVI melanoma
SK-OV-3 ovarian = test system: SK-OV-3 ovarian
NCI-H226 lung = test system: NCI-H226 lung
SNB-19 CNS = test system: SNB-19 CNS
HCT-15 colon = test system: HCT-15 colon
UACC-62 melanoma = test system: UACC-62 melanoma
IGROV1 ovarian = test system: IGROV1 ovarian
CAKI-1 renal = test system: CAKI-1 renal
OVCAR-4 ovarian = test system: OVCAR-4 ovarian
NCI-H23 lung = test system: NCI-H23 lung
A498 renal = test system: A498 renal
NCI-H460 lung = test system: NCI-H460 lung
BT-549 breast = test system: BT-549 breast
U251 CNS = test system: U251 CNS
SK-MEL-5 melanoma = test system: SK-MEL-5 melanoma
MCF7 breast = test system: MCF7 breast
MDA-MB-435 = test system: MDA-MB-435
K-562 leukemia = test system: K-562 leukemia
SK-MEL-28 melanoma = test system: SK-MEL-28 melanoma
DU-145 prostate = test system: DU-145 prostate
COLO 205 colon = test system: COLO 205 colon
HT29 colon = test system: HT29 colon
SN12C renal = test system: SN12C renal
NCI-H522 lung = test system: NCI-H522 lung
SF-295 CNS = test system: SF-295 CNS
UO-31 renal = test system: UO-31 renal
EKVX NSCLC = test system: EKVX NSCLC
SNB-75 CNS = test system: SNB-75 CNS
SF-268 CNS = test system: SF-268 CNS
SF-539 CNS = test system: SF-539 CNS
HOP-62 NSCLC = test system: HOP-62 NSCLC
NCI/ADR-RES ovarian = test system: NCI/ADR-RES ovarian
OVCAR-5 ovarian = test system: OVCAR-5 ovarian
HCC-2998 colon = test system: HCC-2998 colon
MOLT-4 leukemia = test system: MOLT-4 leukemia
OVCAR-8 ovarian = test system: OVCAR-8 ovarian
PC-3 prostate = test system: PC-3 prostate
T-47D breast = test system: T-47D breast
RPMI-8226 leukemia = test system: RPMI-8226 leukemia
A549 NSCLC = test system: A549 NSCLC
MDA-N = test system: MDA-N
UACC-257 melanoma = test system: UACC-257 melanoma
KM12 colon = test system: KM12 colon
SW-620 colon = test system: SW-620 colon
M14 melanoma = test system: M14 melanoma
HOP-92 NSCLC = test system: HOP-92 NSCLC
OVCAR-3 ovarian = test system: OVCAR-3 ovarian
786-0 renal = test system: 786-0 renal
MDA-MB-231 breast = test system: MDA-MB-231 breast
SR leukemia = test system: SR leukemia
ACHN renal = test system: ACHN renal
TK-10 renal = test system: TK-10 renal
RXF 393 renal = test system: RXF 393 renal

`[N-]=[N+]=NCC1OCC(O)C(OCc2ccccc2)C1OCc1ccccc1` (stereo unspecified) gave a TGI (CCRF-CEM leukemia) greater than 100 µM, a TGI (HS 578T breast) greater than 100 µM and a TGI (SK-MEL-2 melanoma) greater than 100 µM. It also gave a TGI (HCT-116 colon) greater than 100 µM, a TGI (HL-60(TB) leukemia) greater than 100 µM and a TGI (LOX IMVI melanoma) greater than 100 µM. It also gave a TGI (SK-OV-3 ovarian) greater than 100 µM, a TGI (NCI-H226 lung) greater than 100 µM and a TGI (SNB-19 CNS) greater than 100 µM. It also gave a TGI (HCT-15 colon) greater than 100 µM, a TGI (UACC-62 melanoma) greater than 100 µM and a TGI (IGROV1 ovarian) greater than 100 µM. The TGI (CAKI-1 renal) was greater than 100 µM, the TGI (OVCAR-4 ovarian) was greater than 100 µM and the TGI (NCI-H23 lung) was greater than 100 µM. The TGI (A498 renal) was greater than 100 µM, the TGI (NCI-H460 lung) was greater than 100 µM and the TGI (BT-549 breast) was greater than 100 µM. The TGI (U251 CNS) was greater than 100 µM, the TGI (SK-MEL-5 melanoma) was greater than 100 µM and the TGI (MCF7 breast) was greater than 100 µM. The TGI (MDA-MB-435) was greater than 100 µM, the TGI (K-562 leukemia) was greater than 100 µM and the TGI (SK-MEL-28 melanoma) was greater than 100 µM. For the same molecule, the TGI (DU-145 prostate) was greater than 100 µM, the TGI (COLO 205 colon) was greater than 100 µM and the TGI (HT29 colon) was greater than 100 µM. The TGI (SN12C renal) was greater than 100 µM, the TGI (NCI-H522 lung) was greater than 100 µM and the TGI (SF-295 CNS) was greater than 100 µM. It also gave a TGI (UO-31 renal) greater than 100 µM, a TGI (EKVX NSCLC) greater than 100 µM and a TGI (SNB-75 CNS) greater than 100 µM. It also gave a TGI (SF-268 CNS) greater than 100 µM, a TGI (SF-539 CNS) greater than 100 µM and a TGI (HOP-62 NSCLC) greater than 100 µM. The TGI (NCI/ADR-RES ovarian) was greater than 100 µM, the TGI (OVCAR-5 ovarian) was greater than 100 µM and the TGI (HCC-2998 colon) was greater than 100 µM. It also gave a TGI (MOLT-4 leukemia) greater than 100 µM, a TGI (OVCAR-8 ovarian) greater than 100 µM and a TGI (PC-3 prostate) greater than 100 µM. It also gave a TGI (T-47D breast) greater than 100 µM, a TGI (RPMI-8226 leukemia) greater than 100 µM and a TGI (A549 NSCLC) greater than 100 µM. The TGI (MDA-N) was greater than 100 µM, the TGI (UACC-257 melanoma) was greater than 100 µM and the TGI (KM12 colon) was greater than 100 µM. For the same molecule, the TGI (SW-620 colon) was greater than 100 µM, the TGI (M14 melanoma) was greater than 100 µM and the TGI (HOP-92 NSCLC) was greater than 100 µM. The TGI (OVCAR-3 ovarian) was greater than 100 µM, the TGI (786-0 renal) was greater than 100 µM and the TGI (MDA-MB-231 breast) was greater than 100 µM. For the same molecule, the TGI (SR leukemia) was greater than 100 µM, the TGI (ACHN renal) was greater than 100 µM and the TGI (TK-10 renal) was greater than 100 µM.
Work on `CC(C)N(C(=O)C12C3(C(=O)OC(C)(C)C)C4C5(C#N)C3C1(C(=O)OC(C)(C)C)C5C42C(=O)OC(C)(C)C)C(C)C` (stereo unspecified) yielded a TGI (CCRF-CEM leukemia) of 30.9 µM, a TGI (HS 578T breast) greater than 100 µM and a TGI (SK-MEL-2 melanoma) greater than 100 µM. For the same molecule, the TGI (HCT-116 colon) was 73.5 µM, the TGI (HL-60(TB) leukemia) was greater than 100 µM and the TGI (LOX IMVI melanoma) was 29 µM. It also gave a TGI (RXF 393 renal) greater than 100 µM, a TGI (SNB-19 CNS) greater than 100 µM and a TGI (HCT-15 colon) greater than 100 µM. For the same molecule, the TGI (UACC-62 melanoma) was greater than 100 µM, the TGI (IGROV1 ovarian) was greater than 100 µM and the TGI (CAKI-1 renal) was greater than 100 µM. For the same molecule, the TGI (OVCAR-4 ovarian) was greater than 100 µM, the TGI (NCI-H23 lung) was greater than 100 µM and the TGI (A498 renal) was greater than 100 µM. For the same molecule, the TGI (NCI-H460 lung) was greater than 100 µM, the TGI (BT-549 breast) was greater than 100 µM and the TGI (U251 CNS) was greater than 100 µM. It also gave a TGI (SK-MEL-5 melanoma) greater than 100 µM, a TGI (MCF7 breast) of 43.9 µM and a TGI (MDA-MB-435) greater than 100 µM. The TGI (K-562 leukemia) was greater than 100 µM, the TGI (SK-MEL-28 melanoma) was greater than 100 µM and the TGI (DU-145 prostate) was greater than 100 µM. For the same molecule, the TGI (COLO 205 colon) was greater than 100 µM, the TGI (HT29 colon) was greater than 100 µM and the TGI (SN12C renal) was greater than 100 µM. The TGI (NCI-H522 lung) was greater than 100 µM, the TGI (SF-295 CNS) was greater than 100 µM and the TGI (UO-31 renal) was greater than 100 µM. It also gave a TGI (EKVX NSCLC) greater than 100 µM, a TGI (SNB-75 CNS) of 41.8 µM and a TGI (SF-268 CNS) greater than 100 µM. It also gave a TGI (SF-539 CNS) greater than 100 µM, a TGI (HOP-62 NSCLC) greater than 100 µM and a TGI (NCI/ADR-RES ovarian) greater than 100 µM. The TGI (OVCAR-5 ovarian) was greater than 100 µM, the TGI (HCC-2998 colon) was greater than 100 µM and the TGI (MOLT-4 leukemia) was 40.1 µM. It also gave a TGI (OVCAR-8 ovarian) greater than 100 µM, a TGI (PC-3 prostate) greater than 100 µM and a TGI (T-47D breast) greater than 100 µM. For the same molecule, the TGI (A549 NSCLC) was greater than 100 µM, the TGI (MDA-N) was greater than 100 µM and the TGI (UACC-257 melanoma) was greater than 100 µM. The TGI (KM12 colon) was greater than 100 µM, the TGI (SW-620 colon) was greater than 100 µM and the TGI (M14 melanoma) was greater than 100 µM. The TGI (HOP-92 NSCLC) was greater than 100 µM, the TGI (OVCAR-3 ovarian) was greater than 100 µM and the TGI (786-0 renal) was greater than 100 µM. The TGI (MDA-MB-231 breast) was greater than 100 µM, the TGI (SR leukemia) was 69.6 µM and the TGI (ACHN renal) was greater than 100 µM. It also gave a TGI (TK-10 renal) greater than 100 µM.
For `O=C(Cn1nnc(-c2ccccc2)n1)N/N=C/c1cn(Cc2ccc(Cl)cc2Cl)c2ccccc12`, the TGI (CCRF-CEM leukemia) was greater than 100 µM, the TGI (HS 578T breast) was greater than 100 µM and the TGI (SK-MEL-2 melanoma) was greater than 100 µM. It also gave a TGI (HCT-116 colon) greater than 100 µM, a TGI (HL-60(TB) leukemia) greater than 100 µM and a TGI (LOX IMVI melanoma) greater than 100 µM. The TGI (SK-OV-3 ovarian) was greater than 100 µM, the TGI (SNB-19 CNS) was greater than 100 µM and the TGI (HCT-15 colon) was greater than 100 µM. For the same molecule, the TGI (UACC-62 melanoma) was greater than 100 µM, the TGI (IGROV1 ovarian) was greater than 100 µM and the TGI (CAKI-1 renal) was greater than 100 µM. The TGI (OVCAR-4 ovarian) was greater than 100 µM, the TGI (NCI-H23 lung) was greater than 100 µM and the TGI (A498 renal) was greater than 100 µM. For the same molecule, the TGI (NCI-H460 lung) was greater than 100 µM, the TGI (BT-549 breast) was greater than 100 µM and the TGI (U251 CNS) was greater than 100 µM. It also gave a TGI (SK-MEL-5 melanoma) greater than 100 µM, a TGI (MCF7 breast) greater than 100 µM and a TGI (MDA-MB-435) greater than 100 µM. For the same molecule, the TGI (K-562 leukemia) was greater than 100 µM, the TGI (DU-145 prostate) was greater than 100 µM and the TGI (COLO 205 colon) was greater than 100 µM. It also gave a TGI (HT29 colon) greater than 100 µM, a TGI (SN12C renal) greater than 100 µM and a TGI (NCI-H522 lung) greater than 100 µM. It also gave a TGI (SF-295 CNS) greater than 100 µM, a TGI (UO-31 renal) greater than 100 µM and a TGI (EKVX NSCLC) greater than 100 µM. The TGI (SNB-75 CNS) was greater than 100 µM, the TGI (SF-268 CNS) was greater than 100 µM and the TGI (SF-539 CNS) was greater than 100 µM. It also gave a TGI (HOP-62 NSCLC) greater than 100 µM, a TGI (NCI/ADR-RES ovarian) greater than 100 µM and a TGI (OVCAR-5 ovarian) greater than 100 µM. The TGI (MOLT-4 leukemia) was greater than 100 µM, the TGI (OVCAR-8 ovarian) was greater than 100 µM and the TGI (PC-3 prostate) was greater than 100 µM. It also gave a TGI (T-47D breast) greater than 100 µM, a TGI (RPMI-8226 leukemia) greater than 100 µM and a TGI (A549 NSCLC) greater than 100 µM. For the same molecule, the TGI (MDA-N) was greater than 100 µM, the TGI (UACC-257 melanoma) was greater than 100 µM and the TGI (KM12 colon) was greater than 100 µM. It also gave a TGI (SW-620 colon) greater than 100 µM, a TGI (M14 melanoma) greater than 100 µM and a TGI (HOP-92 NSCLC) greater than 100 µM. The TGI (OVCAR-3 ovarian) was greater than 100 µM, the TGI (786-0 renal) was greater than 100 µM and the TGI (MDA-MB-231 breast) was greater than 100 µM. For the same molecule, the TGI (SR leukemia) was greater than 100 µM, the TGI (ACHN renal) was greater than 100 µM and the TGI (TK-10 renal) was greater than 100 µM.
